Laboratory results reported in PubChem BioAssay AID192 (DTP/NCI, 2004).
Where “and” joins values, the source holds several entries; their conditions need not be identical. Identical values can stand only once. Inconclusive results and toxic doses are left out.

System: BDF1 mice, B16 melanoma ip, median survival T/C
Test: NCI In Vivo Anticancer Drug Screen. Data for tumor model B16 Melanoma (intraperitoneal) in B6D2F1 (BDF1) mice
Settings: endpoint: median survival time, higher = longer survival
In short: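 Compounds were tested in mice carrying transplantable tumors. Survival or tumor size was recorded, and each value is the treated-group measurement (T) divided by that of the vehicle-treated control group (C).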

[1] = dose: 6.25 mg/kg/injection, schedule: Q01DX009 (ip), vehicle: saline with Tween-80
[2] = dose: 12.5 mg/kg/injection, schedule: Q01DX009 (ip), vehicle: saline with Tween-80
[3] = dose: 25.0 mg/kg/injection, schedule: Q01DX009 (ip), vehicle: saline with Tween-80
[4] = dose: 50.0 mg/kg/injection, schedule: Q01DX009 (ip), vehicle: saline with Tween-80
[5] = dose: 100.0 mg/kg/injection, schedule: Q01DX009 (ip), vehicle: Klucel (hydroxypropylcellulose) (HPC)
[6] = dose: 200.0 mg/kg/injection, schedule: Q01DX009 (ip), vehicle: Klucel (hydroxypropylcellulose) (HPC)
[7] = dose: 50.0 mg/kg/injection, schedule: Q01DX009 (ip), vehicle: saline
[8] = dose: 100.0 mg/kg/injection, schedule: Q01DX009 (ip), vehicle: saline
[9] = dose: 200.0 mg/kg/injection, schedule: Q01DX009 (ip), vehicle: saline
[10] = dose: 25.0 mg/kg/injection, schedule: Q01DX009 (ip), vehicle: Klucel (hydroxypropylcellulose) (HPC)
[11] = dose: 50.0 mg/kg/injection, schedule: Q01DX009 (ip), vehicle: Klucel (hydroxypropylcellulose) (HPC)
[12] = dose: 100.0 mg/kg/injection, schedule: Q01DX009 (ip), vehicle: saline with Tween-80
[13] = dose: 200.0 mg/kg/injection, schedule: Q01DX009 (ip), vehicle: saline with Tween-80
[14] = dose: 400.0 mg/kg/injection, schedule: Q01DX009 (ip), vehicle: saline with Tween-80
[15] = dose: 100.0 mg/kg/injection, schedule: Q04DX003 (ip), vehicle: Klucel (hydroxypropylcellulose) (HPC)
[16] = dose: 400.0 mg/kg/injection, schedule: Q01DX009 (ip), vehicle: Klucel (hydroxypropylcellulose) (HPC)

CCN(CC)Cc1c(C)cc2oc(=O)c3c(c2c1O)CCCC3
T/C (dose: 16.0 mg/kg/injection, schedule: Q01DX009 (ip), vehicle: Klucel (hydroxypropylcellulose) (HPC)): 98 % of control | T/C (dose: 32.0 mg/kg/injection, schedule: Q01DX009 (ip), vehicle: Klucel (hydroxypropylcellulose) (HPC)): 100 % of control | T/C (dose: 64.0 mg/kg/injection, schedule: Q01DX009 (ip), vehicle: Klucel (hydroxypropylcellulose) (HPC)): 88 % of control

Cn1c(O)c(C=N)c(=O)n(C)c1=O
T/C (dose: 25.0 mg/kg/injection, schedule: Q01DX009 (ip), vehicle: other): 111 % of control | T/C (dose: 50.0 mg/kg/injection, schedule: Q01DX009 (ip), vehicle: other): 102 % of control

FC(F)(F)c1ccc2c(c1)N(CCCN1CC[N+]3(CCOCC3)CC1)c1ccccc1S2
T/C (dose: 0.5 mg/kg/injection, schedule: Q01DX009 (ip), vehicle: saline): 105 % of control | T/C (dose: 1.0 mg/kg/injection, schedule: Q01DX009 (ip), vehicle: saline): 94 % of control and 102 % of control | T/C (dose: 2.0 mg/kg/injection, schedule: Q01DX009 (ip), vehicle: saline): 100 % of control and 105 % of control | T/C (dose: 4.0 mg/kg/injection, schedule: Q01DX009 (ip), vehicle: saline): 94 % of control

CCS(=O)(=O)Nc1cccc(Nc2c3cccc(C)c3nc3c(C)cccc23)c1OC
T/C [1]: 185 % of control | T/C [2]: 203 % of control | T/C [3]: 87 % of control

CCNCc1cc(Nc2nc(NC3CCC(N(C)C)CC3)c3ccccc3n2)ccc1OC (stereo unspecified)
T/C (dose: 2.5 mg/kg/injection, schedule: Q01DX009 (ip), vehicle: saline): 105 % of control | T/C (dose: 5.0 mg/kg/injection, schedule: Q01DX009 (ip), vehicle: saline): 103 % of control | T/C (dose: 10.0 mg/kg/injection, schedule: Q01DX009 (ip), vehicle: saline): 114 % of control | T/C (dose: 20.0 mg/kg/injection, schedule: Q01DX009 (ip), vehicle: saline): 122 % of control | T/C (dose: 40.0 mg/kg/injection, schedule: Q01DX009 (ip), vehicle: saline): 112 % of control

O=C1NC(=O)C(=Cc2cc3c(cc2Br)OCO3)C(=O)N1
T/C [2]: 97 % of control | T/C [3]: 94 % of control | T/C [4]: 94 % of control

Cc1ccc(NC(=O)Nc2cccc3ccccc23)c(C)c1
T/C [5]: 89 % of control | T/C [6]: 98 % of control

C=C1[C@@H](O)[C@]2(O)OC[C@@]34[C@H]1[C@@H](OC(=O)C(C)CC)C(=O)O[C@@H]3C[C@H]1C(C)=CC(=O)[C@@H](O)[C@]1(C)[C@@H]24 (stereo partly specified)
T/C (dose: 0.5 mg/kg/injection, schedule: Q01DX009 (ip), vehicle: saline with Tween-80): 116 % of control | T/C (dose: 1.0 mg/kg/injection, schedule: Q01DX009 (ip), vehicle: saline with Tween-80): 118 % of control

CCOC(=O)CCc1ccc(O)c(O)c1
T/C (dose: 37.5 mg/kg/injection, schedule: Q04DX003 (ip), vehicle: saline): 102 % of control | T/C [7]: 113 % of control | T/C (dose: 75.0 mg/kg/injection, schedule: Q04DX003 (ip), vehicle: saline): 102 % of control | T/C [8]: 110 % of control | T/C (dose: 150.0 mg/kg/injection, schedule: Q04DX003 (ip), vehicle: saline): 97 % of control | T/C [9]: 97 % of control

CC(C)=CN1CCOCC1
T/C [10]: 94 % of control | T/C [11]: 100 % of control | T/C [5]: 94 % of control

CCOC(=O)Nc1nccs1
T/C [3]: 97 % of control | T/C [4]: 89 % of control | T/C [12]: 89 % of control | T/C [13]: 89 % of control

Clc1ccc(Cl)c(NNc2cc(Cl)ccc2Cl)c1
T/C [10]: 101 % of control | T/C [11]: 95 % of control | T/C [5]: 101 % of control

CN(C)CC/C=C1\c2ccccc2C(C)(C)c2ccc(Cl)cc21
T/C [3]: 118 % of control | T/C [4]: 92 % of control

CCOC(=O)/C=C/c1ccc2c(c1)OCO2
T/C (dose: 66.0 mg/kg/injection, schedule: Q04DX003 (ip), vehicle: saline with Tween-80): 97 % of control | T/C [12]: 104 % of control | T/C (dose: 100.0 mg/kg/injection, schedule: Q04DX003 (ip), vehicle: saline with Tween-80): 97 % of control | T/C (dose: 150.0 mg/kg/injection, schedule: Q04DX003 (ip), vehicle: saline with Tween-80): 100 % of control | T/C [13]: 106 % of control | T/C [14]: 102 % of control

O=C1C=CC(=O)N1Cc1ccco1
T/C (dose: 65.0 mg/kg/injection, schedule: Q01DX009 (ip), vehicle: saline): 108 % of control | T/C [8]: 103 % of control and 117 % of control | T/C (dose: 150.0 mg/kg/injection, schedule: Q01DX009 (ip), vehicle: saline): 114 % of control and 117 % of control | T/C [9]: 113 % of control | T/C (dose: 400.0 mg/kg/injection, schedule: Q01DX009 (ip), vehicle: saline): 113 % of control

Cc1cc2ncn(C(=O)Nc3ccccc3)c2cc1C
T/C [12]: 100 % of control | T/C [13]: 95 % of control | T/C [14]: 88 % of control

COC(=O)c1ccc[n+](CC(=O)c2ccccc2)c1
T/C [7]: 95 % of control | T/C [8]: 93 % of control | T/C [9]: 99 % of control

CC(C)C1=CC2=CCC3C(C)(CN)CCCC3(C)C2CC1CCN (stereo unspecified)
T/C (dose: 1.25 mg/kg/injection, schedule: Q01DX009 (ip), vehicle: saline with Tween-80): 100 % of control | T/C (dose: 1.25 mg/kg/injection, schedule: Q04DX003 (ip), vehicle: saline with Tween-80): 104 % of control | T/C (dose: 2.5 mg/kg/injection, schedule: Q01DX009 (ip), vehicle: saline with Tween-80): 99 % of control | T/C (dose: 2.5 mg/kg/injection, schedule: Q04DX003 (ip), vehicle: saline with Tween-80): 88 % of control | T/C (dose: 5.0 mg/kg/injection, schedule: Q01DX009 (ip), vehicle: saline with Tween-80): 91 % of control | T/C (dose: 5.0 mg/kg/injection, schedule: Q04DX003 (ip), vehicle: saline with Tween-80): 90 % of control

Nc1nc(Cl)nc2c1ncn2C1OC(CO)C(O)C1O (stereo unspecified)
T/C (dose: 25.0 mg/kg/injection, schedule: Q01DX009 (ip), vehicle: saline): 95 % of control | T/C [7]: 93 % of control | T/C [8]: 95 % of control

Cc1ccc(CNc2ccc(C)cc2)cc1
T/C [5]: 100 % of control | T/C [6]: 100 % of control

CCOc1ccc2nc(Cl)sc2c1
T/C [15]: 105 % of control

Fc1cccc(/C=C2/c3cc(Cl)ccc3-c3c(Cl)cc(Cl)cc32)c1
T/C [1]: 90 % of control | T/C [2]: 93 % of control | T/C [3]: 88 % of control

O=CNC(c1ccccc1)(c1ccccc1)c1ccccc1
T/C [5]: 97 % of control | T/C [6]: 94 % of control | T/C [16]: 94 % of control

Oc1ccc(Nc2c3ccccc3nc3c2ccc2ccccc23)cc1CN(CCCl)CCCl
T/C (dose: 0.3 mg/kg/injection, schedule: Q01DX009 (ip), vehicle: saline): 100 % of control | T/C (dose: 0.45 mg/kg/injection, schedule: Q01DX009 (ip), vehicle: saline): 117 % of control | T/C (dose: 0.8 mg/kg/injection, schedule: Q01DX009 (ip), vehicle: saline): 100 % of control | T/C (dose: 1.2 mg/kg/injection, schedule: Q01DX009 (ip), vehicle: saline): 107 % of control

O=C(NCCCl)N(c1ccccc1)c1cccc(C(F)(F)F)c1
T/C [15]: 114 % of control | T/C (dose: 200.0 mg/kg/injection, schedule: Q04DX003 (ip), vehicle: Klucel (hydroxypropylcellulose) (HPC)): 105 % of control | T/C (dose: 400.0 mg/kg/injection, schedule: Q04DX003 (ip), vehicle: Klucel (hydroxypropylcellulose) (HPC)): 106 % of control

COc1cc2c(cc1OC)C(C=C(c1ccccc1)c1ccccc1)N(C)CC2 (stereo unspecified)
T/C (dose: 12.5 mg/kg/injection, schedule: Q04DX003 (ip), vehicle: Klucel (hydroxypropylcellulose) (HPC)): 97 % of control | T/C (dose: 25.0 mg/kg/injection, schedule: Q04DX003 (ip), vehicle: Klucel (hydroxypropylcellulose) (HPC)): 97 % of control | T/C (dose: 50.0 mg/kg/injection, schedule: Q04DX003 (ip), vehicle: Klucel (hydroxypropylcellulose) (HPC)): 100 % of control

CN(C)N=Nc1ccccc1C(=O)NC#N
T/C (dose: 18.75 mg/kg/injection, schedule: Q01DX009 (ip), vehicle: Klucel (hydroxypropylcellulose) (HPC)): 95 % of control | T/C (dose: 37.5 mg/kg/injection, schedule: Q01DX009 (ip), vehicle: Klucel (hydroxypropylcellulose) (HPC)): 105 % of control

O=[N+]([O-])c1ccc(N=Nc2c(Cl)cc(O)cc2Cl)cc1
T/C [3]: 101 % of control | T/C [4]: 90 % of control | T/C [12]: 88 % of control | T/C [13]: 90 % of control

CCCCCCn1c(O)c(C=N)c(=O)[nH]c1=O
T/C [5]: 95 % of control | T/C [6]: 96 % of control | T/C [16]: 112 % of control
